Data reported in patent US10202347B2, “Compound, production method therefor, and use of said compound” (MICROBIAL CHEMISTRY RESEARCH FOUNDATION, priority 2013, dated 2019).
Read-outs that look alike come from different tables or passages of the source.

Key:
Type in all cases: cell-based
[1] = test system: human stomach cancer cells MKN-74 cocultured with normal stromal cells derived from the human stomach, Hs738; assay: Cell proliferation test, coculture test with normal stromal cells Hs738 (GFP fluorescence)
Method: Human stomach cancer cells MKN-74 (Riken Cell Bank) were cultured at 37° C. and 5% CO2 in DMEM supplemented with 10% FBS (product of GIBCO Co.), 100 units/mL penicillin G (product of Invitrogen Co.), and 100 μg/mL streptomycin (product of Invitrogen Co.).
The above cancer cells were allowed to undergo gene transfer of Green fluorescence protein (GFP) expression vector, pEGFP-C1 (product of BD Biosciences Co.) using the Lipofectamine reagent (product of Invitrogen Co.), to thereby clone cells stably expressing GFP.
Normal stromal cells derived from the human stomach, Hs738 ((CRL-7869), ATCC) were cultured at 37° C. and 5% CO2 in DMEM supplemented with 10% FBS, 100 units/mL penicillin G (product of Invitrogen Co.), 100 μg/mL streptomycin (product of Invitrogen Co.), 5 μg/mL insulin, 5 μg/mL transferrin (product of Wako Pure Chemical Industries Co.), 1.4 μM hydrocortisone (product of Sigma Co.), and […] basic-FGF (product of Pepro Tech Co.).
The above normal stromal cells derived from the human stomach, Hs738 were dispersed at 5×10^4 cells/mL in DMEM containing 1% dialyzed serum, 5 μg/mL insulin, 5 μg/mL transferrine (product of Wako Pure Chemical Industries Co.), and 1.4 μM hydrocortisone (product of Sigma Co.), and were placed in a 96-well plate at 0.1 mL/well. Respective evaluation samples (the compounds expressed by Structural Formulas (1) to (13)) were added thereto at respective concentrations, followed by culturing at 37° C. and 5% CO2 for 2 days.
Next, the above human stomach cancer cells MKN-74 were dispersed in DMEM at 5×10^5 cells/mL, and were placed at 10 μL/well in the plate in which the above normal stromal cells derived from the human stomach, Hs738 had been cultured, followed by further coculturing at 37° C. and 5% CO2 for 3 days.
Measurement of cell proliferation rates in the above coculture test and monoculture test was performed in the following manner.
The medium was removed from the wells of the above plate, and a cytolysis liquid (10 mM Tris-HCl [pH 7.4], 150 mM NaCl, 0.9 mM CaCl2, and 1% Triton X-100) was added thereto at 0.1 mL/well to lyse the cells. The fluorescence intensity of GFP was measured at an excitation wavelength of 485 nm and a fluorescence wavelength of 538 nm, and the cell proliferation rates were calculated from the following formula. Cell proliferation rate (%)=(Fluorescence intensity in the presence of the evaluation sample/Fluorescence intensity in the absence of the evaluation sample)×100

[2] = test system: H. pylori JCM12095 strain; assay: Measurement of MIC for H. pylori JCM12095; settings: Helicobacter pylori, read-out: MIC H. pylori JCM 12095
Method: Each of the above compounds was measured for minimum inhibitory concentration (MIC) for Helicobacter pylori.
Helicobacter pylori JCM12093 strain and H. pylori JCM12095 strain each were statically cultured in a HP medium (brain heart infusion broth (product of Becton, Dickinson Co.) supplemented with 10% fetal bovine serum (product of Life Technologies Co.)) for 144 hours at 37° C. under microaerobic culture conditions (microaerobic conditions (N2:O2:CO2=85:5:10)).
After completion of the culturing, the culture was suspended with the HP medium and diluted so that Helicobacter pylori was 2×10^6 CFU/mL to 9×10^6 CFU/mL.
Each of the test samples (each of the above compounds, clarithromycin, and ampicillin) was prepared with the HP medium to have a concentration of 256 mg/L. From this concentration, the test sample was 2-fold diluted serially in 15 steps to 0.0078 mg/L.
The above-diluted culture was added at 50 μL/well to 50 μL/well of the HP medium containing each of the test samples at the above concentrations, and was statically cultured for 144 hours at 37° C. under microaerobic culture conditions (microaerobic conditions (N2:O2:CO2=85:5:10)). After completion of the culturing, the presence or absence of proliferation of each bacterium was visually determined based on turbidity, and the MIC for each bacterial strain was obtained.

[3] = test system: Enterococcus faecalis JCM5803 strain; assay: Measurement of MIC for Enterococcus faecalis; settings: read-out: MIC Enterococcus faecalis JCM5803
Method: Each of the above compounds was measured for minimum inhibitory concentration (MIC) for Enterococcus faecalis.
Enterococcus faecalis JCM5803 strain was cultured under shaking in a heart infusion broth medium (product of Becton, Dickinson Co.) at 37° C. overnight.
After completion of the culturing, the culture was diluted with the heart infusion broth medium so that the bacteria were 2×10^4 CFU/mL to 9×10^4 CFU/mL.
Each of the test samples (each of the above compounds, clarithromycin, and ampicillin) was prepared with the heart infusion broth medium to have a concentration of 256 mg/L. From this concentration, the test sample was 2-fold diluted serially in 11 steps to 0.125 mg/L.
The above-diluted culture was added at 50 μL/well to 50 μL/well of the heart infusion broth medium containing each of the test samples at the above concentrations, and was statically cultured at 37° C. for 18 hours.
(§1) After completion of the culturing, the presence or absence of proliferation of each bacterium was visually determined based on turbidity, and the MIC for each bacterial strain was obtained.

[4] = test system: H. influenza ARD476 strain; assay: Measurement of MIC for H. influenza ARD476; settings: Haemophilus influenzae, ARD476STRAIN, read-out: MIC H. influenzae ARD476
Method: Each of the above compounds was measured for minimum inhibitory concentration (MIC) for Haemophilus influenza.
Haemophilus influenza T-196 strain and H. influenza ARD476 strain each were statically cultured in a HI medium (Muller Hinton medium (product of Becton, Dickinson Co.) supplemented with 5% Fildes enrichment (product of Becton, Dickinson Co.)) at 37° C. overnight under aerobic conditions containing 5% carbon dioxide gas.
After completion of the culturing, the culture was suspended with the HI medium and diluted so that each Haemophilus influenza strain was 2×10^6 CFU/mL to 9×10^6 CFU/mL.
Each of the test samples (each of the above compounds, clarithromycin, and ampicillin) was prepared with the HI medium to have a concentration of 256 mg/L. From this concentration, the test sample was 2-fold diluted serially in 11 steps to 0.125 mg/L.
The above-diluted culture was added at 50 μL/well to 50 μL/well of the HI medium containing each of the test samples at the above concentrations, and was statically cultured for 18 hours at 37° C. under aerobic conditions containing 5% carbon dioxide gas.
as §1

[5] = coculture test, MKN-74 with stromal cells Hs738, cell proliferation rate, average of duplicate, read-out: Cocul IC50
[6] = JCM12095, HP medium, 144 hours, 37° C., microaerobic
[7] = JCM5803, heart infusion broth medium, 37° C., 18 hours
[8] = HI medium, 18 hours, 37° C., 5% carbon dioxide

`CCCCCCCCc1c(C)c(=O)c2ccccc2n1CC(=O)O` [Structural Formula (6)] was tested, and the IC50 [1, 5] was 4.15 µg/mL, the MIC [2, 6] was 0.25 µg/mL and the MIC [3, 7] was greater than 128 µg/mL. The MIC [4, 8] was 128 µg/mL.

Compound `CCCCCCCc1c(C)c(=O)c2ccccc2n1CN=C(SC)SC` [Structural Formula (13)] has an IC50 ([1]; MKN-74, read-out: Cocul IC50) of 0.78 µg/mL, an MIC ([2]; JCM12095, 144 h) of 2 µg/mL and an MIC [3, 7] greater than 128 µg/mL. It also gave an MIC [4, 8] greater than 128 µg/mL.

Compound `CCCCCCCc1c(C)c(=O)c2ccccc2n1CNC(=S)SC` [Structural Formula (12)] has an IC50 ([1]; MKN-74, read-out: Cocul IC50) of 2.91 µg/mL, an MIC ([2]; JCM12095, 144 h) of 0.06 µg/mL and an MIC [3, 7] greater than 128 µg/mL. The MIC [4, 8] was greater than 128 µg/mL.

Compound `CCCCCCCc1c(C)c(=O)c2ccccc2n1CN=C=S` [Structural Formula (11)] has an IC50 [1, 5] of 0.12 µg/mL, an MIC [2, 6] of 0.016 µg/mL and an MIC ([3]; JCM5803, 18 h) greater than 128 µg/mL. For the same compound, the MIC ([4]; 18 h) was greater than 128 µg/mL.

`Cc1c(CC(C)C)[nH]c2ccccc2c1=O` [Structural Formula (4)] gave an IC50 [1, 5] of 1.32 µg/mL, an MIC [2, 6] of 0.25 µg/mL and an MIC [3, 7] greater than 128 µg/mL. For the same compound, the MIC [4, 8] was 128 µg/mL.

For `CCCCCCCCc1c(C)c(=O)c2ccccc2n1CC(=O)OC` [Structural Formula (5)], the IC50 [1, 5] was 0.53 µg/mL, the MIC [2, 6] was 2 µg/mL and the MIC [3, 7] was greater than 128 µg/mL. It also gave an MIC [4, 8] greater than 128 µg/mL.

`Cc1c(CCCC/C=C/C(C)C)[nH]c2ccccc2c1=O` [Structural Formula (3)] showed an IC50 [1, 5] of 0.012 µg/mL, an MIC [2, 6] of 0.016 µg/mL and an MIC [3, 7] greater than 128 µg/mL. For the same compound, the MIC [4, 8] was greater than 128 µg/mL.

For `CCCCCCCCc1nc2ccccc2c(OCC(=O)O)c1C` [Structural Formula (2)], the IC50 [1, 5] was 0.37 µg/mL, the MIC [2, 6] was 0.5 µg/mL and the MIC [3, 7] was greater than 128 µg/mL. The MIC [4, 8] was 64 µg/mL.
